Data taken from PubChem BioAssay AID2060501 (Molecular Pharmacology Branch, DTP, NCI, 2025).

Test system: 282377-053-R-J1-PDC complex spheroids, viability
Assay: Anticancer human tumor 282377-053-R-J1-PDC patient-derived colon adenocarcinoma cell line growth inhibition [GQUAD]
Settings: for IC50: curve of first compound; for viability, T/C: stronger effect = lower value
Method in brief: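 Viability of tumor cells grown as complex spheroids with endothelial and stromal cells, exposed to drug combinations. Top concentration at or near clinical Cmax (else 10 microM), diluted in half-log increments.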

[1] = second compound 0.0316 µM, first compound 0.0316 µM
[2] = second compound 0.0316 µM, first compound 0.316 µM
[3] = second compound 0.1 µM, first compound 0.0316 µM
[4] = second compound 0.1 µM, first compound 0.316 µM
[5] = second compound 0.316 µM, first compound 0.0316 µM
[6] = second compound 0.316 µM, first compound 0.316 µM
[7] = second compound 1 µM, first compound 0.0316 µM
[8] = second compound 1 µM, first compound 0.316 µM
[9] = second compound 3.16 µM, first compound 0.0316 µM
[10] = second compound 3.16 µM, first compound 0.316 µM
[11] = second compound 10 µM, first compound 0.0316 µM
[12] = second compound 10 µM, first compound 0.316 µM
[13] = second compound 0.0316 µM, first compound 0.1 µM
[14] = second compound 0.0316 µM, first compound 1 µM
[15] = second compound 0.0316 µM, first compound 3.16 µM
[16] = second compound 0.0316 µM, first compound 10 µM
[17] = second compound 0.1 µM, first compound 0.1 µM
[18] = second compound 0.1 µM, first compound 1 µM
[19] = second compound 0.1 µM, first compound 3.16 µM
[20] = second compound 0.1 µM, first compound 10 µM
[21] = second compound 0.316 µM, first compound 0.1 µM
[22] = second compound 0.316 µM, first compound 1 µM
[23] = second compound 0.316 µM, first compound 3.16 µM
[24] = second compound 0.316 µM, first compound 10 µM
[25] = second compound 1 µM, first compound 0.1 µM
[26] = second compound 1 µM, first compound 1 µM
[27] = second compound 1 µM, first compound 3.16 µM
[28] = second compound 1 µM, first compound 10 µM
[29] = second compound 3.16 µM, first compound 0.1 µM
[30] = second compound 3.16 µM, first compound 1 µM
[31] = second compound 3.16 µM, first compound 3.16 µM
[32] = second compound 3.16 µM, first compound 10 µM
[33] = second compound 10 µM, first compound 0.1 µM
[34] = second compound 10 µM, first compound 1 µM
[35] = second compound 10 µM, first compound 3.16 µM
[36] = second compound 10 µM, first compound 10 µM
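Note: spheroids exposed to compounds for 7 days before readout.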
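Throughout, for viability, T/C: percent of vehicle DMSO control viability with 100% = untreated-like growth.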

## CCc1c2c(nc3ccc(O)cc13)-c1cc3c(c(=O)n1C2)COC(=O)[C@]3(O)CC + Cc1[nH]c2ccc(F)cc2c1-c1nc2c3cccnc3c3ncccc3c2[nH]1
Second compound 0.0316 µM
  IC50: 0.0278 µM
Second compound 0.1 µM
  IC50: 0.0267 µM
Second compound 0.316 µM
  IC50: 0.0352 µM
Second compound 1 µM
  IC50: 0.0205 µM
Second compound 3.16 µM
  IC50: 0.00328 µM
Second compound 10 µM
  IC50: < 0.000999 µM
Second compound 0.0316 µM, first compound 0.000999 µM
  viability, T/C: 125%
Second compound 0.0316 µM, first compound 0.00316 µM
  viability, T/C: 79.7%
Second compound 0.0316 µM, first compound 0.00999 µM
  viability, T/C: 65.6%
[1]
  viability, T/C: 54.4%
Second compound 0.0316 µM, first compound 0.0999 µM
  viability, T/C: 37.9%
[2]
  viability, T/C: 29.4%
Second compound 0.1 µM, first compound 0.000999 µM
  viability, T/C: 112%
Second compound 0.1 µM, first compound 0.00316 µM
  viability, T/C: 99.3%
Second compound 0.1 µM, first compound 0.00999 µM
  viability, T/C: 64%
[3]
  viability, T/C: 49.8%
Second compound 0.1 µM, first compound 0.0999 µM
  viability, T/C: 34.2%
[4]
  viability, T/C: 25.5%
Second compound 0.316 µM, first compound 0.000999 µM
  viability, T/C: 107%
Second compound 0.316 µM, first compound 0.00316 µM
  viability, T/C: 83.3%
Second compound 0.316 µM, first compound 0.00999 µM
  viability, T/C: 64.4%
[5]
  viability, T/C: 47.9%
Second compound 0.316 µM, first compound 0.0999 µM
  viability, T/C: 46.8%
[6]
  viability, T/C: 26.9%
Second compound 1 µM, first compound 0.000999 µM
  viability, T/C: 87.2%
Second compound 1 µM, first compound 0.00316 µM
  viability, T/C: 77.6%
Second compound 1 µM, first compound 0.00999 µM
  viability, T/C: 52.6%
[7]
  viability, T/C: 47%
Second compound 1 µM, first compound 0.0999 µM
  viability, T/C: 36.6%
[8]
  viability, T/C: 25.9%
Second compound 3.16 µM, first compound 0.000999 µM
  viability, T/C: 71.5%
Second compound 3.16 µM, first compound 0.00316 µM
  viability, T/C: 51%
Second compound 3.16 µM, first compound 0.00999 µM
  viability, T/C: 33.4%
[9]
  viability, T/C: 25.9%
Second compound 3.16 µM, first compound 0.0999 µM
  viability, T/C: 17.1%
[10]
  viability, T/C: 11.8%
Second compound 10 µM, first compound 0.000999 µM
  viability, T/C: 21.1%
Second compound 10 µM, first compound 0.00316 µM
  viability, T/C: 29.2%
Second compound 10 µM, first compound 0.00999 µM
  viability, T/C: 12.5%
[11]
  viability, T/C: 8.86%
Second compound 10 µM, first compound 0.0999 µM
  viability, T/C: 9.45%
[12]
  viability, T/C: 8.4%

## CC1COCCN1c1cc(C2(S(C)(=N)=O)CC2)nc(-c2ccnc3[nH]ccc23)n1 (stereo unspecified) + Cc1cnc(CNC(=O)c2c(=O)c3ccc(N4CCCN(C)CC4)nc3n3c2sc2ccccc23)cn1
Second compound 0.0316 µM
  IC50: > 10 µM
Second compound 0.1 µM
  IC50: 4.51 µM
Second compound 0.316 µM
  IC50: 5.63 µM
Second compound 1 µM
  IC50: 3.78 µM
Second compound 3.16 µM
  IC50: 3.52 µM
Second compound 10 µM
  IC50: < 0.0316 µM
[1]
  viability, T/C: 94.2%
[13]
  viability, T/C: 78.7%
[2]
  viability, T/C: 96.2%
[14]
  viability, T/C: 89.1%
[15]
  viability, T/C: 61.1%
[16]
  viability, T/C: 50.6%
[3]
  viability, T/C: 99.5%
[17]
  viability, T/C: 115%
[4]
  viability, T/C: 94.4%
[18]
  viability, T/C: 76.2%
[19]
  viability, T/C: 59.1%
[20]
  viability, T/C: 35.4%
[5]
  viability, T/C: 83.2%
[21]
  viability, T/C: 92.2%
[6]
  viability, T/C: 97.1%
[22]
  viability, T/C: 81%
[23]
  viability, T/C: 64.3%
[24]
  viability, T/C: 36.3%
[7]
  viability, T/C: 68.4%
[25]
  viability, T/C: 79.2%
[8]
  viability, T/C: 70.9%
[26]
  viability, T/C: 61%
[27]
  viability, T/C: 55.6%
[28]
  viability, T/C: 30%
[9]
  viability, T/C: 49.1%
[29]
  viability, T/C: 56.1%
[10]
  viability, T/C: 68.5%
[30]
  viability, T/C: 50.1%
[31]
  viability, T/C: 52.2%
[32]
  viability, T/C: 34.6%
[11]
  viability, T/C: 42.1%
[33]
  viability, T/C: 52%
[12]
  viability, T/C: 54.5%
[34]
  viability, T/C: 43.9%
[35]
  viability, T/C: 43.1%
[36]
  viability, T/C: 29.1%

## CC(=O)O[C@H]1C(=O)[C@@]2(C)[C@H]([C@H](OC(=O)c3ccccc3)[C@]3(O)C[C@H](OC(=O)[C@H](O)[C@@H](NC(=O)c4ccccc4)c4ccccc4)C(C)=C1C3(C)C)[C@]1(OC(C)=O)CO[C@@H]1C[C@@H]2O + Cc1cnc(CNC(=O)c2c(=O)c3ccc(N4CCCN(C)CC4)nc3n3c2sc2ccccc23)cn1
Second compound 0.0316 µM
  IC50: < 0.0316 µM
Second compound 0.1 µM
  IC50: < 0.0316 µM
Second compound 0.316 µM
  IC50: < 0.0316 µM
Second compound 1 µM
  IC50: < 0.0316 µM
Second compound 3.16 µM
  IC50: < 0.0316 µM
Second compound 10 µM
  IC50: < 0.0316 µM
[1]
  viability, T/C: 42.7%
[13]
  viability, T/C: 17.2%
[2]
  viability, T/C: 21.4%
[14]
  viability, T/C: 18.4%
[15]
  viability, T/C: 20.4%
[16]
  viability, T/C: 24.9%
[3]
  viability, T/C: 44.1%
[17]
  viability, T/C: 22.9%
[4]
  viability, T/C: 23.9%
[18]
  viability, T/C: 21.6%
[19]
  viability, T/C: 26.1%
[20]
  viability, T/C: 27.9%
[5]
  viability, T/C: 47.7%
[21]
  viability, T/C: 24.4%
[6]
  viability, T/C: 24.9%
[22]
  viability, T/C: 31.5%
[23]
  viability, T/C: 33.7%
[24]
  viability, T/C: 33.9%
[7]
  viability, T/C: 38.1%
[25]
  viability, T/C: 26.6%
[8]
  viability, T/C: 24.6%
[26]
  viability, T/C: 32.1%
[27]
  viability, T/C: 35.2%
[28]
  viability, T/C: 31.4%
[9]
  viability, T/C: 37.8%
[29]
  viability, T/C: 23.8%
[10]
  viability, T/C: 29.8%
[30]
  viability, T/C: 25.2%
[31]
  viability, T/C: 28.4%
[32]
  viability, T/C: 30.4%
[11]
  viability, T/C: 25.5%
[33]
  viability, T/C: 17%
[12]
  viability, T/C: 23%
[34]
  viability, T/C: 24.1%
[35]
  viability, T/C: 35.6%
[36]
  viability, T/C: 18.4%
